Patent US8993574B2, “Pyrrole antifungal agents” (F2G Ltd, priority 2008, dated 2015)
≈ marks a conversion by molar mass, not a printed value.

What was measured:
Assay type in all cases: cell-based
Aspergillus flavus [1] = assay: MIC, YAG medium; conditions: 24 h at 35° C, MIC banded into grades; for MIC: Aspergillus flavus, 24 h, read-out: MIC grade, A. flavus
In short: (§1)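 Endpoint is growth at OD 485 nm after 24 h at 35° C, with MIC defined as the lowest drug level giving >70% inhibition relative to untreated wells and recorded in mg/L. Tests ran in YAG broth with 1−2×10^4 cfu/mL spore inocula from Sabouraud-grown cultures. Drug ranges were 50-0.05 mg/L, repeated at 0.5-0.0005 mg/L when needed.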

[2] = system: Aspergillus fumigatus AF210; assay: MIC, YAG medium; conditions: 24 h at 35° C, MIC banded into grades; for MIC: Aspergillus fumigatus, read-out: MIC grade, A. fumigatus 210
In short: as §1

[3] = system: Aspergillus fumigatus AF293; assay: MIC, YAG medium; conditions: 24 h at 35° C, MIC banded into grades; for MIC: Aspergillus fumigatus, read-out: MIC grade, A. fumigatus
In short: as §1

Aspergillus niger [4] = assay: MIC, YAG medium; conditions: 24 h at 35° C, MIC banded into grades; for MIC: Aspergillus niger, read-out: MIC grade, A. niger
In short: as §1

Aspergillus terreus AT49 [5] = assay: MIC, YAG medium; conditions: 24 h at 35° C, MIC banded into grades; for MIC: Aspergillus terreus, read-out: MIC grade, A. terreus 49
In short: as §1

Aspergillus terreus AT4 [6] = assay: MIC, YAG medium; conditions: 24 h at 35° C, MIC banded into grades; for MIC: Aspergillus terreus, read-out: MIC grade, A. terreus
In short: as §1

Aspergillus flavus [7] = assay: MIC, RPMI medium; conditions: MIC banded into grades; for MIC: Aspergillus flavus, read-out: MIC grade, A. flavus
In short: (§2)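 Broth microdilution in RPMI medium with 2% glucose and 0.135 M MOPS (pH 7.0); compounds as doubling dilutions over 50-0.05 mg/L, inoculum 1−2×10^4 cfu/mL. Plates incubated 24-48 h at 35° C; OD 485 nm read, MIC being lowest concentration giving >80% growth inhibition versus drug-free control.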

[8] = system: Aspergillus fumigatus AF210; assay: MIC, RPMI medium; conditions: for MIC: Aspergillus fumigatus, AF210, MIC banded into grades, read-out: MIC grade, A. fumigatus 210
In short: as §2

[9] = system: Aspergillus fumigatus AF293; assay: MIC, RPMI medium; conditions: for MIC: Aspergillus fumigatus, AF293, MIC banded into grades, read-out: MIC grade, A. fumigatus
In short: as §2

Aspergillus niger [10] = assay: MIC, RPMI medium; conditions: MIC banded into grades; for MIC: Aspergillus niger, read-out: MIC grade, A. niger
In short: as §2

Aspergillus terreus AT49 [11] = assay: MIC, RPMI medium; conditions: for MIC: Aspergillus terreus, AT49, MIC banded into grades, read-out: MIC grade, A. terreus 49
In short: as §2

Aspergillus terreus AT4 [12] = assay: MIC, RPMI medium; conditions: for MIC: Aspergillus terreus, AT4, MIC banded into grades, read-out: MIC grade, A. terreus
In short: as §2

MIC (Aspergillus flavus [1]) [µg/mL] | MIC [2] [µg/mL] | MIC [3] [µg/mL] | MIC (Aspergillus niger [4]) [µg/mL] | MIC (Aspergillus terreus AT49 [5]) [µg/mL] | MIC (Aspergillus terreus AT4 [6]) [µg/mL] | MIC (Aspergillus flavus [7]) [µg/mL] | MIC [8] [µg/mL] | MIC [9] [µg/mL] | MIC (Aspergillus niger [10]) [µg/mL] | MIC (Aspergillus terreus AT49 [11]) [µg/mL] | MIC (Aspergillus terreus AT4 [12]) [µg/mL] | Structure (SMILES) | other results
 |  |  |  |  |  |  |  |  |  |  |  | COC(=O)Cn1cc(-c2ccccc2)cc1C(=O)C(=O)Nc1ccc(N2CCN(c3cc(C)cc(C)n3)CC2)cc1 [Example 122, (2-{4-[4-(4,6-Dimethyl-pyridin-2-yl)-piperazin-1-yl]-phenylaminooxalyl}-4-phenyl-pyrrol-1-yl)-acetic acid methyl ester] | MIC grade, A. flavus (Aspergillus flavus [1]): 1 (a grade of 1 represents an MIC of greater than 10 mg/L); MIC grade, A. fumigatus 210 [2]: 2 (A grade of 2 represents an MIC of from 1 to 10 mg/L); MIC grade, A. fumigatus [3]: 3 (A grade of 3 represents an MIC of less than 1 mg/L); MIC grade, A. niger (Aspergillus niger [4]): 2 (A grade of 2 represents an MIC of from 1 to 10 mg/L); MIC grade, A. terreus 49 (Aspergillus terreus AT49 [5]): 1 (a grade of 1 represents an MIC of greater than 10 mg/L); MIC grade, A. terreus (Aspergillus terreus AT4 [6]): 1 (a grade of 1 represents an MIC of greater than 10 mg/L); MIC grade, A. flavus (Aspergillus flavus [7]): 1 (a grade of 1 represents an MIC of greater than 10 mg/L); MIC grade, A. fumigatus 210 ([8]; MIC banded into grades): 1 (a grade of 1 represents an MIC of greater than 10 mg/L); MIC grade, A. fumigatus ([9]; MIC banded into grades): 1 (a grade of 1 represents an MIC of greater than 10 mg/L); MIC grade, A. niger (Aspergillus niger [10]): 2 (A grade of 2 represents an MIC of from 1 to 10 mg/L); MIC grade, A. terreus 49 (Aspergillus terreus AT49 [11]; MIC banded into grades): 1 (a grade of 1 represents an MIC of greater than 10 mg/L); MIC grade, A. terreus (Aspergillus terreus AT4 [12]; MIC banded into grades): 1 (a grade of 1 represents an MIC of greater than 10 mg/L)
> 10 | 1 to 10 (≈ 1.99 to 19.9 µM) | 1 to 10 (≈ 1.99 to 19.9 µM) | > 10 | 1 to 10 (≈ 1.99 to 19.9 µM) | 1 to 10 (≈ 1.99 to 19.9 µM) | > 10 | > 10 | > 10 | > 10 | > 10 | > 10 | COCCn1ccc(C(C)C)c1C(=O)C(=O)Nc1ccc(N2CCN(c3cc(C)cc(C)n3)CC2)cc1 [Example 83, N-{4-[4-(4,6-Dimethyl-pyridin-2-yl)-piperazin-1-yl]-phenyl}-2-[3-isopropyl-1-(2-methoxy-ethyl)-1H-pyrrol-2-yl]-2-oxo-acetamide] | 
1 to 10 (≈ 1.72 to 17.2 µM) | < 1 | 1 to 10 (≈ 1.72 to 17.2 µM) | 1 to 10 (≈ 1.72 to 17.2 µM) | 1 to 10 (≈ 1.72 to 17.2 µM) | 1 to 10 (≈ 1.72 to 17.2 µM) | > 10 | > 10 | > 10 | > 10 | > 10 | > 10 | CCCOCCn1c(C)cc(-c2ccccc2)c1C(=O)C(=O)Nc1ccc(N2CCN(c3cc(C)cc(C)n3)CC2)cc1 [Example 140, N-{4-[4-(4,6-Dimethyl-pyridin-2-yl)-piperazin-1-yl]-phenyl}-2-[5-methyl-3-phenyl-1-(2-propoxy-ethyl)-1H-pyrrol-2-yl]-2-oxo-acetamide] | 
1 to 10 (≈ 1.87 to 18.7 µM) | < 1 | < 1 | < 1 | 1 to 10 (≈ 1.87 to 18.7 µM) | 1 to 10 (≈ 1.87 to 18.7 µM) | > 10 | 1 to 10 (≈ 1.87 to 18.7 µM) | 1 to 10 (≈ 1.87 to 18.7 µM) | 1 to 10 (≈ 1.87 to 18.7 µM) | 1 to 10 (≈ 1.87 to 18.7 µM) | 1 to 10 (≈ 1.87 to 18.7 µM) | Cc1cc(C)nc(N2CCN(c3ccc(NC(=O)C(=O)c4c(-c5ccccc5)cc(C)n4C(C)C)cc3)CC2)c1 [Example 8, N-{4-[4-(4,6-Dimethyl-pyridin-2-yl)-piperazin-1-yl]-phenyl}-2-(1-isopropyl-5-methyl-3-phenyl-1H-pyrrol-2-yl)-2-oxo-acetamide] | 
> 10 | < 1 | < 1 | 1 to 10 (≈ 1.77 to 17.7 µM) | 1 to 10 (≈ 1.77 to 17.7 µM) | 1 to 10 (≈ 1.77 to 17.7 µM) | > 10 | 1 to 10 (≈ 1.77 to 17.7 µM) | 1 to 10 (≈ 1.77 to 17.7 µM) | 1 to 10 (≈ 1.77 to 17.7 µM) | > 10 | > 10 | CCOCCn1c(C)cc(-c2ccccc2)c1C(=O)C(=O)Nc1ccc(N2CCN(c3cc(C)cc(C)n3)CC2)cc1 [Example 27, N-{4-[4-(4,6-Dimethyl-pyridin-2-yl)-piperazin-1-yl]-phenyl}-2-[1-(2-ethoxy-ethyl)-5-methyl-3-phenyl-1H-pyrrol-2-yl]-2-oxo-acetamide] | 
> 10 | 1 to 10 (≈ 3.18 to 31.8 µM) | 1 to 10 (≈ 3.18 to 31.8 µM) | > 10 | 1 to 10 (≈ 3.18 to 31.8 µM) | 1 to 10 (≈ 3.18 to 31.8 µM) | > 10 | > 10 | > 10 | > 10 | > 10 | > 10 | CCCNC(=O)C(=O)c1c(-c2ccccc2)ccn1CCOC [Example 82, 2-[1-(2-Methoxy-ethyl)-3-phenyl-1H-pyrrol-2-yl]-2-oxo-N-propyl-acetamide] | 
< 1 | < 1 | < 1 | < 1 | < 1 | < 1 | < 1 | < 1 | < 1 | < 1 | < 1 | < 1 | Cc1cc(-c2ccccc2)c(C(=O)C(=O)Nc2ccc(N3CCN(c4ccccn4)CC3)cc2)n1C [Example 38, 2-(1,5-Dimethyl-3-phenyl-1H-pyrrol-2-yl)-2-oxo-N-[4-(4-pyridin-2-yl-piperazin-1-yl)-phenyl]-acetamide] | 
< 1 | < 1 | < 1 | < 1 | < 1 | < 1 | < 1 | < 1 | < 1 | < 1 | < 1 | < 1 | C=C(C)CN1CCN(c2ccc(NC(=O)C(=O)c3c(-c4ccccc4)cc(C)n3C)c(F)c2)CC1 [Example 108, 2-(1,5-Dimethyl-3-phenyl-1H-pyrrol-2-yl)-N-{2-fluoro-4-[4-(2-methyl-allyl)-piperazin-1-yl]-phenyl}-2-oxo-acetamide] | 
< 1 | < 1 | < 1 | < 1 | < 1 | < 1 | 1 to 10 (≈ 1.71 to 17.1 µM) | < 1 | < 1 | < 1 | > 10 | 1 to 10 (≈ 1.71 to 17.1 µM) | COCCn1c(C)cc(-c2ccccc2)c1C(=O)C(=O)Nc1ccc(N2CCN(c3cc(C)cc(C)n3)CC2)c(Cl)c1 [Example 24, N-{3-Chloro-4-[4-(4,6-dimethyl-pyridin-2-yl)-piperazin-1-yl]-phenyl}-2-[1-(2-methoxy-ethyl)-5-methyl-3-phenyl-1H-pyrrol-2-yl]-2-oxo-acetamide] | 
1 to 10 (≈ 1.76 to 17.6 µM) | 1 to 10 (≈ 1.76 to 17.6 µM) | 1 to 10 (≈ 1.76 to 17.6 µM) | 1 to 10 (≈ 1.76 to 17.6 µM) | 1 to 10 (≈ 1.76 to 17.6 µM) | 1 to 10 (≈ 1.76 to 17.6 µM) | > 10 | > 10 | > 10 | 1 to 10 (≈ 1.76 to 17.6 µM) | 1 to 10 (≈ 1.76 to 17.6 µM) | 1 to 10 (≈ 1.76 to 17.6 µM) | COCc1cc(-c2ccccc2)c(C(=O)C(=O)Nc2ccc(N3CCN(c4cc(C)cc(C)n4)CC3)cc2)n1COC [Example 131, 2-(1,5-Bis-methoxymethyl-3-phenyl-1H-pyrrol-2-yl)-N-{4-[4-(4,6-dimethyl-pyridin-2-yl)-piperazine-1-yl]-phenyl}-2-oxo-acetamide] | 
< 1 | < 1 | < 1 | < 1 | < 1 | < 1 | < 1 | < 1 | < 1 | < 1 | < 1 | < 1 | CCc1cc(-c2ccccc2)c(C(=O)C(=O)Nc2ccc(N3CCN(c4cc(C)cc(C)n4)CC3)cc2)n1C [Example 53, N-{4-[4-(4,6-Dimethyl-pyridin-2-yl)-piperazin-1-yl]-phenyl}-2-(5-ethyl-1-methyl-3-phenyl-1H-pyrrol-2-yl)-2-oxo-acetamide] | 
